Assay results published in patent US20230372361A1, “USE OF OXYGENATED CHOLESTEROL SULFATES FOR TREATING INFLAMMATORY CONDITIONS” (Durect Corporation, priority 2020, published 2023).

Columns and labels:
[1] = Metabolite profiling of plasma, urine, feces after intravenous dose (HPLC radiodetection, MS); type: in vivo, rats; conditions: iv 10 mg/kg
Protocol: Plasma pools were made from Group 1 rats at the 0.083, 0.25, 0.5, and 1-hour collection time points.
Urine pools were prepared for Group 2 at 0 to 6 and 6 to 12 hours post-dose. […] Four metabolites present at <10% relative observed intensity in at least 1 sample were M7 (<5% relative observed intensity), M16 (<3% relative observed intensity), M19 (<6% relative observed intensity), and M25 (<5% relative observed intensity).
Feces pools were prepared for Group 2 at 0 to 12, 12 to 24, and 24 to 48 hours post-dose.

[2] = tested on: DNMT1/3a/3b; assay: DNMT1/3a/3b activities, overall statements; type: biochemical; conditions: for effect on enzymatic activities: controls
Protocol: For the DNMT1 activity assay, the substrate solution, 0.001 mg/ml Poly(dI-dC):Poly(dI-dC) in 50 mM Tris-HCl, pH 7.5, 50 mM NaCl, 5 mM EDTA, 5 mM DTT, 1 mM PMSF, 5% glycerol, 0.01% Brij35, 1% DMSO was used. For the DNMT3a/3b activity assay, 0.0075 mg/ml Lambda DNA in 50 mM Tris-HCl, pH 7.5, 50 mM NaCl, 5 mM EDTA, 5 mM DTT, 1 mM PMSF, 5% glycerol, 1% DMSO, was used. The indicated DNMT1, DNMT3a, or DNMT3b was added to the appropriate substrate solution and gently mixed. […] The mixtures were first incubated for 15 min, then ^3H-SAM was added to the reaction mixture to initiate the reaction, and the mixture was incubated for 60 min at 30° C. Following incubation, the reaction mixture was finally transferred to filter-paper for detection of radioactivity counts.

[3] = Metabolite profiling of plasma and feces after oral dose (radio-HPLC, HPLC/MS); set-up: species or system rats; conditions: Sprague Dawley, rat, in vivo, 75 mg/kg
Protocol: Radiolabeled components in plasma and feces extracts were profiled and identified using radio-high performance liquid chromatography (HPLC) and high performance liquid chromatography/mass spectrometry (HPLC/MS) methods.
Plasma pools were prepared for Group 1 (75 mg/kg, [14C]-25HC3S) samples collected at 2, 4, and 6 hours post-dose. […] One metabolite M29 was identified as 25-hydroxycholesterol with 37% ROI and a concentration of 1233 ng-equiv./g.
Feces pools were prepared for Group 2 (75 mg/kg, [^14C]-25HC3S) samples collected from 0 to 24, 24 to 48, 48 to 72, 72 to 96, 96 to 120, 120 to 144, and 144 to 168 hours post-dose. A total of eleven metabolites were identified. None of the metabolites were present at ≥5% of dose. Metabolites present at 2-5% of dose were M1(4.5% of total dose and 1%-69% ROI), M3 (4.6% of total dose and 1%-44% ROI), M4 (2.0% of total dose and 0%-10% ROI), M8 (3.1% of total dose and 1%-46% ROI), M29 (1.9% of total dose and 0%-2% ROI), and M30 (3.3% of total dose and 0%-5% ROI).

| Compound | detection in plasma, urine, or feces samples [1] | effect on enzymatic activities [2] | also measured |
| --- | --- | --- | --- |
| C[C@H](CCCC(C)(C)O)[C@H]1CC[C@H]2[C@@H]3CC=C4C[C@@H](O)CC[C@]4(C)[C@H]3CC[C@]12C [25HC, 25-Hydroxycholesterol, reference compound] | Neither desmosterol sulfate nor 25-hydroxycholesterol was detected |  |  |
| C[C@@H](CO)CCC[C@@H](C)[C@H]1CC[C@H]2[C@@H]3CC=C4C[C@@H](O)CC[C@]4(C)[C@H]3CC[C@]12C [27HC, 27-Hydroxycholesterol] |  |  | effect on other enzymes (than DNMT-1) [2]: had no effect on other enzymes |
| C[C@H](CCCC(C)(C)O)[C@H]1CC[C@H]2[C@@H]3CC=C4C[C@@H](O)CC[C@]4(C)[C@H]3CC[C@]12C [M29, 25-hydroxycholesterol] |  |  | ROI in feces [3]: 0-2% |
| CC(C)CCC[C@@H](C)[C@H]1CC[C@H]2[C@@H]3CC=C4C[C@@H](OS(=O)(=O)O)CC[C@]4(C)[C@H]3CC[C@]12C [Xol3S, 5-cholesten-3β-ol, 3-sulfate] |  | did not significantly affect enzymatic activities |  |
| CC(C)CCC[C@@H](C)[C@H]1CC[C@H]2[C@@H]3CC=C4C[C@@H](O)CC[C@]4(C)[C@H]3CC[C@]12C [Xol, Cholesterol] |  | did not significantly affect enzymatic activities |  |
| desmosterol sulfate | Neither desmosterol sulfate nor 25-hydroxycholesterol was detected |  |  |
